One assay relates to Raji MEK DD cells. Description: Erk1/2 phosphorylation in Raji cells expressing MEK DD (Western blot). It counts as cell-based, human. Conditions: 1 h. How it is done: Figure 5 Inhibition of Erk1/2 phosphorylation by X-370 contributed to its antiproliferative activity (A-C) X-370 inhibited Erk1/2 phosphorylation via PI3K-PDK1-MEK1/2 cascade but not the PI3K-Gab1 positive feedback loop. (A) Raji and SU-DHL-6 cells were exposed to 1 μM X370 for 3 h and protein fraction from cellular membrane was separated using Native Membrane Protein Extraction Kit and probed. WCL: whole cell lysate. (B) Inhibition of PDK1 or MEK1/2 abrogated Erk1/2 phosphorylation. Cells were treated with pharmacological inhibitors of Raf (AZ 628, PLX4032), MEK1/2 (AZD6244), p90RSK (BI-D1870), PI3Kδ (X-370), PDK1 (BX-912), Akt (MK-2206), mTOR (AZD8055) or mTORC1 (Rapamycin) respectively and indicated proteins were detected. (C) X-370 disrupted the association between PDK1 and MEK1/2. Raji cells were treated with 1 μM X370 for 1 h and cell lysates were immunoprecipitated with anti-PDK1 antibody and indicated proteins were detected. WCL: whole cell lysate. […] (E) Raji and Raji MEK DD cells were treated with X-370 for 72 h and cell proliferation was detected by CCK-8 assay. (F) Raji MEK DD cells were treated with X-370 and AZD6244 and cell proliferation was detected by CCK-8 assay. Data were show as mean ± SD of three independent experiments. *: p < 0.05 determined by t-tests at each data point. […]

The target in another assay is PI3Kδ (Homo sapiens, UniProt O00329). Nature of the assay: Kinase Profiler lipid kinase IC50. It counts as biochemical. The arrangement: purchased Millipore (Kinase Profiler Services, United Kingdom). Conditions: ATP at Km of the isoform; 10-point half-log dilution from 1000 nM. On the procedure: Figure 1 Structure of X-370 and its inhibitory activity against lipid kinases (A) Chemical structure of X-370. (B) X-370 docked to the crystal structure of PI3Kδ. The model was generated based on the co-crystal structure of PI3Kδ and ZSTK474 (PDB ID: 2WXL). (C) IC50 of X-370 against PI3Kδ increased along with ATP concentration. […] Data was obtained from Kinase Profiler Services (Millipore, United Kingdom). Briefly, X-370 was solved in DMSO at a concentration of 10 mM, 10-point kinase inhibitory activity was measured over concentrations in a half-log dilution series started at 1000 nM with ATP at a concentration consistent with Km of each isoform of class I PI3K and IC50s were calculated. Relative kinase activity in the presence of 10 μM X-370 compared to DMSO control was measured for the rest of lipid kinases. […]
In vitro kinase profile assays were analyzed by the Kinase Profiler Service (Millipore, United Kingdom) following its guidelines. […] The PI3K kinase activity was determined in the increasing concentration of ATP and X-370 with PI3-Kinase HTRF™ Assay kit (Millipore) as described previously.

Chain of PI3Kδ (O00329 whole entry, canonical isoform): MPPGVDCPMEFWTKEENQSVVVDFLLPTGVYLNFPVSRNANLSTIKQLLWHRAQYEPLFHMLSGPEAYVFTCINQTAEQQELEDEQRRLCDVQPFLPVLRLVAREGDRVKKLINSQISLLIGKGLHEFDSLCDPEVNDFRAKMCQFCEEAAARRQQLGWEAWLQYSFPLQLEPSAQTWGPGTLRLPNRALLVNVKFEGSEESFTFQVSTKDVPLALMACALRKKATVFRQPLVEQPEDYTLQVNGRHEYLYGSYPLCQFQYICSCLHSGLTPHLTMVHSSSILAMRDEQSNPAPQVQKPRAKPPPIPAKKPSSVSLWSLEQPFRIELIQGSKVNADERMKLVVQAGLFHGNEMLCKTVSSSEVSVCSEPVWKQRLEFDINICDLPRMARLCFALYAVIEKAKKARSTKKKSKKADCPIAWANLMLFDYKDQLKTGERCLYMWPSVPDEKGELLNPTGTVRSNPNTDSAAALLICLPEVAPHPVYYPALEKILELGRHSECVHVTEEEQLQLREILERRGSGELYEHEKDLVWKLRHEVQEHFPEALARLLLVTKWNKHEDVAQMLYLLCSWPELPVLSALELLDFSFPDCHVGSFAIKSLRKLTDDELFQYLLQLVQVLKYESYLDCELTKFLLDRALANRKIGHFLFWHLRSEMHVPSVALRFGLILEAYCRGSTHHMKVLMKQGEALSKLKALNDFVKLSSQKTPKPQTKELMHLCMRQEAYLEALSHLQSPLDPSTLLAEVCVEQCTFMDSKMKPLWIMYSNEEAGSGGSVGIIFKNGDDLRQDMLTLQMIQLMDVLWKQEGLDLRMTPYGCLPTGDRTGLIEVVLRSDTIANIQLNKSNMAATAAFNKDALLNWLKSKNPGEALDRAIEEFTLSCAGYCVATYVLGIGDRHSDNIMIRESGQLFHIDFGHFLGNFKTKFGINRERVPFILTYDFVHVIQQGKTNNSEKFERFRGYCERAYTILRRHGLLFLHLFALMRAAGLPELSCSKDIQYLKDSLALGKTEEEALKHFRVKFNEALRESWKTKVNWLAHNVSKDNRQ
Chain of PI3Kδ (P27986 whole entry partner, canonical isoform): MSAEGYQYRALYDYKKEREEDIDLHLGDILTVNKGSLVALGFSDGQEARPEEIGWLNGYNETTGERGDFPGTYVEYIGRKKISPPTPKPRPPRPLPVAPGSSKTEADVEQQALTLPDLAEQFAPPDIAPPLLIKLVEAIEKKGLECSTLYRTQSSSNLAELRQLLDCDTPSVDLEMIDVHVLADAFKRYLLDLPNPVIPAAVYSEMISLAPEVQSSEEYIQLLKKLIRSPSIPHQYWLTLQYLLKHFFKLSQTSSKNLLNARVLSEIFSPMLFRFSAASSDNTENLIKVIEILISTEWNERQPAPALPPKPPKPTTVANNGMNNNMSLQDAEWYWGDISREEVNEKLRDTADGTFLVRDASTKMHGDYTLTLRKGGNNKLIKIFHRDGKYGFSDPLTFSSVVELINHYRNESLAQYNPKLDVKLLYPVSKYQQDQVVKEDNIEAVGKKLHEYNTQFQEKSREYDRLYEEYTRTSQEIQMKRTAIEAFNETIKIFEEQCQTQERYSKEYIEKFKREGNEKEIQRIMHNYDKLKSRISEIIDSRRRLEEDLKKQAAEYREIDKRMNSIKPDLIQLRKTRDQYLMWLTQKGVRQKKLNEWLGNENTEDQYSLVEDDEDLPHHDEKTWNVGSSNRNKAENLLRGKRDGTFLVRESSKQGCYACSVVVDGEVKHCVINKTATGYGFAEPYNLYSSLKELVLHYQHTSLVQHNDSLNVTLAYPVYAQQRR

On to `O=C(N1CCCC1)N1CCC(n2cnc3c(-n4c(C(F)F)nc5ccccc54)nc(N4CCOCC4)nc32)CC1` [X-370], for which the Erk1/2 phosphorylation result in the assay on Raji MEK DD cells is on record as “failed to inhibit”. Also, at PI3Kδ, half-maximal inhibition (IC50) required 7 nM.

Source of the values: paper PMC4279406, “Simultaneous targeting of PI3Kδ and a PI3Kδ-dependent MEK1/2-Erk1/2 pathway for therapy in pediatric B-cell acute lymphoblastic leukemia” (Oncotarget, 2014).
